GI50 and TGI data for 28 compounds are collected here from PubChem BioAssay (NCI).

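Results reflect a 48-hour exposure of cells in 96-well plates to compound at five concentrations. Abbreviation: GI50, concentration required for 50% inhibition of growth. TGI is the concentration that stops growth completely.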

The subject of one test is SN12C renal. Kind of test: NCI anticancer screen, dose series, 48 h.
In the case of `COc1cc([N+](=O)[O-])c(OC)cc1-c1nc2sc(Cl)cn2c1/C=N/Nc1ccccn1`, the GI50 is 8.53 µM and the TGI amounted to 36.8 µM.
Turning to `CC(=O)N/N=C1\NC(=O)C[C@H]2[C@@H]3CC=C4C[C@@H](OC(C)=O)CC[C@]4(C)[C@H]3CC[C@]12C`, the TGI was over 100 µM.
Take `C=C[C@@H]1C(CO)=CCC2[C@H]1CCC1C(C)(C)C(=O)CC[C@]21C` (some centres undefined): the TGI is over 100 µM.
`COc1ccc2nc3cc(Cl)ccc3c(NCCCNCCCNc3c4ccc(Cl)cc4nc4ccc(OC)cc34)c2c1` displayed a TGI of 0.285 µM.
`C=CCNC(=S)/N=C/c1c(O)c2ccccc2oc1=O` gave a TGI of over 100 µM.
On to `CCOC(=O)c1c(-c2ccc(OC)cc2)c(C#N)c(=S)n(C2OC(COC(C)=O)C(OC(C)=O)C(OC(C)=O)C2OC(C)=O)c1C` (centres undefined), for which the TGI was over 100 µM.
The compound `C1=CC2=CC=CC3c4nc5ccc6ccccc6c5nc4C(=C1)C23` (centres undefined) had a TGI of over 100 µM.
In turn, `O=C(CCCN1CCC2(CC1)CC(=O)N(N1CCOCC1)C2=O)c1ccccc1` came in with a TGI of over 100 µM.
On to `CC(=O)N(C(C)=O)C1=C2c3ccccc3N(S(=O)(=O)c3ccccc3)C2n2c(=O)n(-c3ccccc3)c(=O)n2C1` (centres undefined), for which the TGI is over 100 µM.
On the same count and under the same terms, the result for `COc1ccc(C(OCC2OC(n3cc(C)c(=O)[nH]c3=O)CC2n2cc(Cn3cc(F)c(=O)[nH]c3=O)nn2)(c2ccccc2)c2ccccc2)cc1` (centres undefined) reads 22.8 µM.
In turn, `C=CCn1c(=O)ccn(COCCO)c1=O` came in with a TGI of over 100 µM.
The compound `O=C(NC(Cc1ccc(I)cc1)C(=O)O)c1ccc(I)cc1` (centres undefined) displayed a TGI of over 100 µM.
On to `CCCCC1c2c([nH]c3ccccc23)C2C(=O)N(c3ccc(OC)cc3)C(=O)C2C1CCC` (centres undefined), for which the TGI was determined as 4.04 µM.
In turn, `C(=N\NC1=NCCCN1)/c1ccc2ccccc2c1` registered a TGI of 26.6 µM.
`O=C(N=Nc1cc(Cl)ccc1Cl)NNc1cc(Cl)ccc1Cl` yielded a TGI of 52.5 µM.
Turning to `CSc1cc(Cl)c(C)cc1S(=O)(=O)NC(=O)NNc1ccc(Cl)cc1`, the TGI was over 100 µM.
`O=C(CNc1ccccc1Cl)Nn1c(-c2ccccc2)nc2ccccc2c1=O` returned a TGI of over 100 µM.
Still for that read-out and setting: as for `O=c1ccc2cc3ccc4cccc5ccc(c2o1)c3c45`, the figure is over 100 µM; as for `CC1(C)N=C(C(N)=O)c2ncn(CCCO)c2N1`, over 100 µM; as for `O=S(=O)(O)c1cc2ccc1/C=C\c1ccc(cc1S(=O)(=O)O)N=Nc1ccc(c(S(=O)(=O)O)c1)/C=C\c1ccc(cc1S(=O)(=O)O)N=N2`, over 100 µM.

The subject of the next test is BT-549 breast. In words: NCI anticancer screen, dose series, 48 h.
With `CC(C)(C)NC(=O)/C(=C\Sc1ccccc1)c1ccc2c(c1)OCO2`, the TGI was over 100 µM.
`COc1ccc2cc(-c3ccc(-c4ccc(C(=N)N)s4)s3)ccc2c1`: the GI50 was 17.6 µM and the TGI is 38.5 µM.
In the case of `N#CCCN(CCC#N)c1ccc(/C=C2\N=C(c3ccccc3)N(c3ccc(Cl)cc3)C2=O)cc1`, the TGI was over 100 µM.
`Cc1c(S(=O)(=O)/N=C(\N)Nc2ccc(Cl)cc2)sc2ccc(Cl)cc12` showed a TGI of 58 µM.
Turning to `COc1cc([N+](=O)[O-])c(OC)cc1-c1nc2sc(Cl)cn2c1/C=N/Nc1ccccn1`, the GI50 is 15.5 µM and the TGI amounted to 38.7 µM.
Compound `CC(=O)N/N=C1\NC(=O)C[C@H]2[C@@H]3CC=C4C[C@@H](OC(C)=O)CC[C@]4(C)[C@H]3CC[C@]12C` came in with a TGI of 32.7 µM.
The compound `COc1ccc2nc3cc(Cl)ccc3c(NCCCNCCCNc3c4ccc(Cl)cc4nc4ccc(OC)cc34)c2c1` registered a TGI of 1.67 µM.
Compound `O=C(CCCN1CCC2(CC1)CC(=O)N(N1CCOCC1)C2=O)c1ccccc1` displayed a TGI of 27.9 µM.
Take `COc1ccc(C(OCC2OC(n3cc(C)c(=O)[nH]c3=O)CC2n2cc(Cn3cc(F)c(=O)[nH]c3=O)nn2)(c2ccccc2)c2ccccc2)cc1` (centres undefined): the TGI amounted to 28.8 µM.
With `C=CCn1c(=O)ccn(COCCO)c1=O`, the TGI was over 100 µM.
`C(=N\NC1=NCCCN1)/c1ccc2ccccc2c1` had a TGI of 32.5 µM.
On to `O=C(CNc1ccccc1Cl)Nn1c(-c2ccccc2)nc2ccccc2c1=O`, for which the TGI amounted to 25.5 µM.

Another test deals with SF-295 CNS. Kind of test: NCI anticancer screen, dose series, 48 h.
For `CC(=O)O[C@]12CCCCCC1C1(O)C(O)CCC[C@H]12` (some centres undefined), the TGI is over 100 µM.
With `CC(C)(C)NC(=O)/C(=C\Sc1ccccc1)c1ccc2c(c1)OCO2`, the TGI was over 100 µM.
`COCOc1ccc(Cn2c(=O)n(C)c(=O)c3c2ncn3C)cc1[N+](=O)[O-]`: the TGI is over 100 µM.
Consider `COc1ccc2cc(-c3ccc(-c4ccc(C(=N)N)s4)s3)ccc2c1`, for which the GI50 is 5.07 µM and the TGI amounted to 17.6 µM.
As to `N#CCCN(CCC#N)c1ccc(/C=C2\N=C(c3ccccc3)N(c3ccc(Cl)cc3)C2=O)cc1`, the TGI was over 100 µM.
The compound `Cc1c(S(=O)(=O)/N=C(\N)Nc2ccc(Cl)cc2)sc2ccc(Cl)cc12` gave a TGI of 46.7 µM.
For the compound `BrC/C=C/C[P+](c1ccccc1)(c1ccccc1)c1ccccc1`, the TGI was 60.6 µM.
With `Cc1cc(=O)c2c([nH]1)NS(=O)(=O)NC2=O`, the TGI is over 100 µM.
On to `COc1cc([N+](=O)[O-])c(OC)cc1-c1nc2sc(Cl)cn2c1/C=N/Nc1ccccn1`, for which the GI50 is 12.4 µM and the TGI amounted to 41.8 µM.
In the case of `CC(=O)N/N=C1\NC(=O)C[C@H]2[C@@H]3CC=C4C[C@@H](OC(C)=O)CC[C@]4(C)[C@H]3CC[C@]12C`, the TGI amounted to 45.1 µM.
With `C=C[C@@H]1C(CO)=CCC2[C@H]1CCC1C(C)(C)C(=O)CC[C@]21C` (some centres undefined), the TGI is over 100 µM.
On the same count and under the same terms, as for `COc1ccc2nc3cc(Cl)ccc3c(NCCCNCCCNc3c4ccc(Cl)cc4nc4ccc(OC)cc34)c2c1`, the figure is 0.183 µM; as for `C=CCNC(=S)/N=C/c1c(O)c2ccccc2oc1=O`, over 100 µM.
`CCOC(=O)c1c(-c2ccc(OC)cc2)c(C#N)c(=S)n(C2OC(COC(C)=O)C(OC(C)=O)C(OC(C)=O)C2OC(C)=O)c1C` (centres undefined): the TGI is over 100 µM.
The compound `C1=CC2=CC=CC3c4nc5ccc6ccccc6c5nc4C(=C1)C23` (centres undefined) came in with a TGI of over 100 µM.
Still for that read-out and setting: the result for `O=C(CCCN1CCC2(CC1)CC(=O)N(N1CCOCC1)C2=O)c1ccccc1` reads over 100 µM.
`CC(=O)N(C(C)=O)C1=C2c3ccccc3N(S(=O)(=O)c3ccccc3)C2n2c(=O)n(-c3ccccc3)c(=O)n2C1` (centres undefined): the TGI was over 100 µM.
The same measure, in the same setting: as for `COc1ccc(C(OCC2OC(n3cc(C)c(=O)[nH]c3=O)CC2n2cc(Cn3cc(F)c(=O)[nH]c3=O)nn2)(c2ccccc2)c2ccccc2)cc1` (centres undefined), the figure is 19.4 µM; as for `O=C(NC(Cc1ccc(I)cc1)C(=O)O)c1ccc(I)cc1` (centres undefined), over 100 µM.
As to `CCCCC1c2c([nH]c3ccccc23)C2C(=O)N(c3ccc(OC)cc3)C(=O)C2C1CCC` (centres undefined), the TGI was over 10 µM.
Same read-out and setting: as for `C(=N\NC1=NCCCN1)/c1ccc2ccccc2c1`, the figure is 24.7 µM; as for `O=C(N=Nc1cc(Cl)ccc1Cl)NNc1cc(Cl)ccc1Cl`, over 100 µM.
Consider `CSc1cc(Cl)c(C)cc1S(=O)(=O)NC(=O)NNc1ccc(Cl)cc1`, for which the TGI is over 100 µM.
`O=C(CNc1ccccc1Cl)Nn1c(-c2ccccc2)nc2ccccc2c1=O` registered a TGI of 91.1 µM.
For the compound `O=c1ccc2cc3ccc4cccc5ccc(c2o1)c3c45`, the TGI was over 100 µM.
Still for that read-out and setting: as for `CC1(C)N=C(C(N)=O)c2ncn(CCCO)c2N1`, the figure is over 100 µM; as for `O=S(=O)(O)c1cc2ccc1/C=C\c1ccc(cc1S(=O)(=O)O)N=Nc1ccc(c(S(=O)(=O)O)c1)/C=C\c1ccc(cc1S(=O)(=O)O)N=N2`, over 100 µM.
